# Source: ChEMBL document CHEMBL1201862, “PubChem BioAssay data set” (2004)
# Activity calls are given as the source filed them.
# Assays:
# HEK293 = test: optical interference in Abeta FP readout, dose response, artefact control for IDE activator project, biochemical, fluorescence polarization (AID 588442); format: functional, cell-based; details: Homo sapiens
# [1] = target: T1, Dual specificity protein phosphatase 6 (Rattus norvegicus, UniProt Q64346); test: MKP-3 phosphatase inhibitors, primary screen, biochemical, rat enzyme, in vitro (AID 425)
# T1 sequence (Q64346 whole entry): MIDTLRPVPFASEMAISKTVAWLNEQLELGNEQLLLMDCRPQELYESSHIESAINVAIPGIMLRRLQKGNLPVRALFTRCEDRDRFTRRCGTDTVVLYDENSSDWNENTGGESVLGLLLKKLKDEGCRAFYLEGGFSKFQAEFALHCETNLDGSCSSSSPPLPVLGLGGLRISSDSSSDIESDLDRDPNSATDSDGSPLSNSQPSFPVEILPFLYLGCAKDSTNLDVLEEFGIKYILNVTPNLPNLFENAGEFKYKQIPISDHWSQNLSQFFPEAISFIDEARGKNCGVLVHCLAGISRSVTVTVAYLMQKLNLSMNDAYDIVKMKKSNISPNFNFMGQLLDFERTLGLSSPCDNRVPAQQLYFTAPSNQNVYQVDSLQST
# [2] = target: T2, Apoptotic protease-activating factor 1 (Homo sapiens, UniProt O14727); format: functional
# T2 sequence (O14727 whole entry): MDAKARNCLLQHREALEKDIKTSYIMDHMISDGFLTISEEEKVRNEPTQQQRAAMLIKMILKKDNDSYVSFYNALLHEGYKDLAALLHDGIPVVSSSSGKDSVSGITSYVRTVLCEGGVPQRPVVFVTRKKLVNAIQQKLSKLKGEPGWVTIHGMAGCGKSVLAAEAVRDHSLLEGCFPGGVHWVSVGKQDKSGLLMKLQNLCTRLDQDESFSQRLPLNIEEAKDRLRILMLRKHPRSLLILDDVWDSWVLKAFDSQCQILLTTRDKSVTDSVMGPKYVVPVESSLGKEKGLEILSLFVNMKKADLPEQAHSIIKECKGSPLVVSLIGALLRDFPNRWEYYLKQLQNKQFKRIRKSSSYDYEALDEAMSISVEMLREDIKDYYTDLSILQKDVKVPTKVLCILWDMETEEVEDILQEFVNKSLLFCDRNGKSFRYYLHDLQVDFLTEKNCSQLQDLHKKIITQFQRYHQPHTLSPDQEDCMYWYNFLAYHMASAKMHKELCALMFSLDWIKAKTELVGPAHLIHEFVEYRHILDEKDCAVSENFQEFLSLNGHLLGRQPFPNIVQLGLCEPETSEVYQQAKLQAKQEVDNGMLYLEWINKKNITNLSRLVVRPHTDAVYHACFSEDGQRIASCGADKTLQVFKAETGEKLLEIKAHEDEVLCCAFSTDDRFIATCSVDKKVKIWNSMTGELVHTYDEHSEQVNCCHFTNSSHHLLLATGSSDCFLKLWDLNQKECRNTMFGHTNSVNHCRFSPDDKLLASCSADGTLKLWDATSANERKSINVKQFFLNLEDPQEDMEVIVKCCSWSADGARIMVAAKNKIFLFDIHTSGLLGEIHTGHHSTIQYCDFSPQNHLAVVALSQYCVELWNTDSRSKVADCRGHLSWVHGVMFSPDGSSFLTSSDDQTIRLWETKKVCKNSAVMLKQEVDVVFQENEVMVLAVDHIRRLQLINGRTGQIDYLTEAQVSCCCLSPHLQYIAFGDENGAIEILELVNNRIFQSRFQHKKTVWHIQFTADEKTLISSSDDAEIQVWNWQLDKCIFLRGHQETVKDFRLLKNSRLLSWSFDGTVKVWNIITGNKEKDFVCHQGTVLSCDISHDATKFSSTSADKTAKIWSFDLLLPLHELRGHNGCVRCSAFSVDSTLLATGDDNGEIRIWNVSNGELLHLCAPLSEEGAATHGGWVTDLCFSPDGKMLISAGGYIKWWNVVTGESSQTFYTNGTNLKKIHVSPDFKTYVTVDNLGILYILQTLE
# Caspase-6 = target: T3, Caspase-6 (Homo sapiens, UniProt P55212); test: human caspase-6 inhibitors, dose response, biochemical, VEID-R110 fluorescence, cherry-pick (AID 720632)
# T3 sequence (P55212 whole entry): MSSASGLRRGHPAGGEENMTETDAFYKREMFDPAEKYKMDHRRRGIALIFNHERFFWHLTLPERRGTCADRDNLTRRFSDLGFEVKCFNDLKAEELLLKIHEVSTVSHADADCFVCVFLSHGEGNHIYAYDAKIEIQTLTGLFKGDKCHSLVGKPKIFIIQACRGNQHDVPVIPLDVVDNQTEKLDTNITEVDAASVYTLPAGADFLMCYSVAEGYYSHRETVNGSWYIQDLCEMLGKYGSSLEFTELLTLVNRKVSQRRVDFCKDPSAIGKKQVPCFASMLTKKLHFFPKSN
# [3] = target: T4, Replicative DNA helicase DnaB (Mycobacterium tuberculosis, UniProt P9WMR3); test: DnaB intein splicing inhibitors, dose response, biochemical, cell-free fluorescence (AID 449749); format: functional
# T4 sequence (P9WMR3 whole entry): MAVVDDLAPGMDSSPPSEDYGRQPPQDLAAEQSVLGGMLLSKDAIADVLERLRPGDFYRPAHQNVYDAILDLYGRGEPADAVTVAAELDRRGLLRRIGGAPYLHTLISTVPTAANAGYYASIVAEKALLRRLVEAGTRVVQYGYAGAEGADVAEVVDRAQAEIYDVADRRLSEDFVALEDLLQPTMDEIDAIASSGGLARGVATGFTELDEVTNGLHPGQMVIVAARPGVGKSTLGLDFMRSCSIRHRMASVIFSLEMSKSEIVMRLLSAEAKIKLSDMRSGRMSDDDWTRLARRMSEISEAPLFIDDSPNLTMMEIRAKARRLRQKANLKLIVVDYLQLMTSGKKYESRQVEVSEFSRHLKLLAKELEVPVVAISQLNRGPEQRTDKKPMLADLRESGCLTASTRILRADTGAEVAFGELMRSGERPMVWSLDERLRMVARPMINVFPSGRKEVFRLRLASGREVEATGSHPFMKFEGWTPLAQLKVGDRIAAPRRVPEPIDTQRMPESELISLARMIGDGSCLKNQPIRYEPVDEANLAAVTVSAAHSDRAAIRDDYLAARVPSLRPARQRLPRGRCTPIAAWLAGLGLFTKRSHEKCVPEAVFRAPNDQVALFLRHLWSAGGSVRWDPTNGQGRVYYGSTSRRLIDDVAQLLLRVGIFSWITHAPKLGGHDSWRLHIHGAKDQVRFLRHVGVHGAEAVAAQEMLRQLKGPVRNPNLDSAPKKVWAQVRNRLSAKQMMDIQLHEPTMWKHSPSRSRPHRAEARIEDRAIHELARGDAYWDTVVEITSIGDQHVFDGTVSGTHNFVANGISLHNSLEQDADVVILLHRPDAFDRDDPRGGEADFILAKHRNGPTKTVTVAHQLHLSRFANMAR
# [4] = ARNT/TACC3 interaction disruptors, potency, confirmation, biochemical, AlphaScreen, cherry-picked samples (AID 651703); format: functional, Homo sapiens;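 also: His-tagged ARNT PAS-B domain paired with GST-TACC3 E629A dimer coactivator fragment; potency of inhibitors that break up the complex and lower AlphaScreen signal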
SMILES,EC50 (HEK293),IC50 [1],IC50 [2],AC50 (Caspase-6),AC50 [3],AC50 [4]
O=c1oc2c(O)cccc2cc1-c1nc2ccccc2[nH]1,> 54.7 µM (inactive),–,–,–,–,–
CCOC(=O)c1sc2nc3c(SCC(=O)O)cc(C(=O)c4ccccc4O)cn3c(=O)c2c1C,–,103 µM (not active),–,–,–,–
C=CCn1c(NC(=O)c2ccccc2Cl)c(C#N)c2nc3ccccc3nc21,–,> 100 µM (not active),13.7 µM (active),10.4 µM (active),–,–
CCOC(=O)c1ccc(Nc2cc3ccccc3c(O)n2)cc1,–,–,8.78 µM (active),15.7 µM (active),11.1 µM (active),84.2 µM (active)
